# Data: the supplement of paper PMC11208160
# Experiment: recombinant UMI read abundance after kanamycin selection (control-corrected) (log10(CPM+1)); higher = more efficient recombination; extreme values may be limits of the assay; sequences stand for … in AGTGCAGAGAAAATCGGCCAGTTTTCTCTGCCTGCAGTCCGCATGCCGTGGGACCCCTTGGGTTCTAACCTGTTGCCTAGATTTATGCAGCGGACTGCCTTTCTCCCAAAGTGATAAACCGG…AGGTTGGTTTCACT; site = the 11-nt donor
# Procedure: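 Pooled E. coli donor-specificity screen for the IS621 bridge recombinase. Each library member carries a reprogrammed 11-nt donor and a full-length LE bridge RNA expressed in cis from the natural promoter, with a paired donor-binding loop (8-nt LDG + 4-nt RDG) and a target-binding loop fixed to T5. It is co-electroporated with a T5 target plasmid; recombinase is induced with 0.07 mM IPTG and recombinants are selected on kanamycin. UMIs are counted as CPM, averaged over two biological replicates and corrected by the unselected control. Molecule = full bridge RNA written as DNA, built from the T5 scaffold: LDG = donor specificity nt 1-8, RDG = reverse complement of nt 8-11.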
# 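Also: IS621 bridge recombinase in Escherichia coli cells against a fixed T5 target plasmid.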
row,Sequence,recombinant UMI read abundance (log10)
1,ACAGTATCATGGACCGGTTTTCCCGGTAATCCGTATTTGCA (site ACAGTGTCTGG),0
2,ACAGTATCATGGACCGGTTTTCCCGGTAATCCGTATTTGCA (site ACAGTGTCTTG),2.4
3,ACAGTATCATGGACCGGTTTTCCCGGTAATCCGTATTTGCA (site ACAGTGTCTTT),0.0151
4,ACAGTATCATGGACCGGTTTTCCCGGTAATCCGTATTTGCA (site ACAGTTGCTTG),0.0085
5,ACAGTATCATGGACCGGTTTTCCCGGTAATCCGTATTTGCA (site ACAGTTTCTCG),0
6,ACAGTATCATGGACCGGTTTTCCCGGTAATCCGTATTTGCA (site ACAGTTTCTTA),0.0131
7,ACAGTATCATGGACCGGTTTTCCCGGTAATCCGTATTTGCA (site ACAGTTTCTTG),1.23
8,ACAGTATCATGGACCGGTTTTCCCGGTAATCCGTATTTGCA (site ACATGATCTTG),1.29
9,ACAGTATCATGGACCGGTTTTCCCGGTAATCCGTATTTGCA (site ACATTACCTTG),0
10,ACAGTATCATGGACCGGTTTTCCCGGTAATCCGTATTTGCA (site ACATTATCTGG),0
11,ACAGTATCATGGACCGGTTTTCCCGGTAATCCGTATTTGCA (site ACATTATCTTG),1.22
12,ACAGTATCATGGACCGGTTTTCCCGGTAATCCGTATTTGCA (site ACATTATCTTT),0.0113
13,ACAGTATCATGGACCGGTTTTCCCGGTAATCCGTATTTGCA (site ACATTGTCTTG),1.03
14,ACAGTATCATGGACCGGTTTTCCCGGTAATCCGTATTTGCA (site ACCATATCTTG),1.91
15,ACAGTATCATGGACCGGTTTTCCCGGTAATCCGTATTTGCA (site ACCGAATCTTG),0
16,ACAGTATCATGGACCGGTTTTCCCGGTAATCCGTATTTGCA (site ACCGTAACTTG),0.0063
17,ACAGTATCATGGACCGGTTTTCCCGGTAATCCGTATTTGCA (site ACCGTATCTAG),0.0104
18,ACAGTATCATGGACCGGTTTTCCCGGTAATCCGTATTTGCA (site ACCGTATCTTC),0.00762
19,ACAGTATCATGGACCGGTTTTCCCGGTAATCCGTATTTGCA (site ACCGTATCTTG),1.82
20,ACAGTATCATGGACCGGTTTTCCCGGTAATCCGTATTTGCA (site ACCGTCTCTTG),1.39
21,ACAGTATCATGGACCGGTTTTCCCGGTAATCCGTATTTGCA (site ACGCTATCTTG),1.16
22,ACAGTATCATGGACCGGTTTTCCCGGTAATCCGTATTTGCA (site ACGGCATCTTG),0

row,Sequence,recombinant UMI read abundance (log10)
1,ACAGTATCATGGACCGGTTTTCCCGGTAATCCGTATTTGCA (site ACGGTAGCTTG),0.0044
2,ACAGTATCATGGACCGGTTTTCCCGGTAATCCGTATTTGCA (site ACGGTATCTCG),0.00452
3,ACAGTATCATGGACCGGTTTTCCCGGTAATCCGTATTTGCA (site ACGGTATCTTA),0.00481
4,ACAGTATCATGGACCGGTTTTCCCGGTAATCCGTATTTGCA (site ACGGTATCTTG),0.0156
5,ACAGTATCATGGACCGGTTTTCCCGGTAATCCGTATTTGCA (site ACGGTTTCTTG),0.0105
6,ACAGTATCATGGACCGGTTTTCCCGGTAATCCGTATTTGCA (site ACTGGATCTTG),0
7,ACAGTATCATGGACCGGTTTTCCCGGTAATCCGTATTTGCA (site ACTGTACCTTG),0
8,ACAGTATCATGGACCGGTTTTCCCGGTAATCCGTATTTGCA (site ACTGTATCTGG),0.00893
9,ACAGTATCATGGACCGGTTTTCCCGGTAATCCGTATTTGCA (site ACTGTATCTTG),2.31
10,ACAGTATCATGGACCGGTTTTCCCGGTAATCCGTATTTGCA (site ACTGTATCTTT),0.00405
11,ACAGTATCATGGACCGGTTTTCCCGGTAATCCGTATTTGCA (site ACTGTGTCTTG),1.26
12,ACAGTATCATGGACCGGTTTTCCCGGTAATCCGTATTTGCA (site ACTTTATCTTG),1.44
13,ACAGTATCATGGACCGGTTTTCCCGGTAATCCGTATTTGCA (site AGAGGATCTTG),0.0328
14,ACAGTATCATGGACCGGTTTTCCCGGTAATCCGTATTTGCA (site AGAGTACCTTG),0
15,ACAGTATCATGGACCGGTTTTCCCGGTAATCCGTATTTGCA (site AGAGTATCTGG),0.0344
16,ACAGTATCATGGACCGGTTTTCCCGGTAATCCGTATTTGCA (site AGAGTATCTTG),2.46
17,ACAGTATCATGGACCGGTTTTCCCGGTAATCCGTATTTGCA (site AGAGTATCTTT),0.0042
18,ACAGTATCATGGACCGGTTTTCCCGGTAATCCGTATTTGCA (site AGAGTGTCTTG),1.6
19,ACAGTATCATGGACCGGTTTTCCCGGTAATCCGTATTTGCA (site AGATTATCTTG),1.58
20,ACAGTATCATGGACCGGTTTTCCCGGTAATCCGTATTTGCA (site AGTGTATCTTG),1.45
21,ACAGTATCATGGACCGGTTTTCCCGGTAATCCGTATTTGCA (site ATACTATCTTG),1.12
22,ACAGTATCATGGACCGGTTTTCCCGGTAATCCGTATTTGCA (site ATAGCATCTTG),1.83

row,Sequence,recombinant UMI read abundance (log10)
1,ACAGTATCATGGACCGGTTTTCCCGGTAATCCGTATTTGCA (site ATAGTAGCTTG),0.354
2,ACAGTATCATGGACCGGTTTTCCCGGTAATCCGTATTTGCA (site ATAGTATCTCG),0.0911
3,ACAGTATCATGGACCGGTTTTCCCGGTAATCCGTATTTGCA (site ATAGTATCTTA),0
4,ACAGTATCATGGACCGGTTTTCCCGGTAATCCGTATTTGCA (site ATAGTATCTTG),2.04
5,ACAGTATCATGGACCGGTTTTCCCGGTAATCCGTATTTGCA (site ATAGTTTCTTG),0.0207
6,ACAGTATCATGGACCGGTTTTCCCGGTAATCCGTATTTGCA (site ATGGTATCTTG),1.7
7,ACAGTATCATGGACCGGTTTTCCCGGTAATCCGTATTTGCA (site CCAGGATCTTG),0.811
8,ACAGTATCATGGACCGGTTTTCCCGGTAATCCGTATTTGCA (site CCAGTACCTTG),0.0123
9,ACAGTATCATGGACCGGTTTTCCCGGTAATCCGTATTTGCA (site CCAGTATCTGG),0.613
10,ACAGTATCATGGACCGGTTTTCCCGGTAATCCGTATTTGCA (site CCAGTATCTTG),2.71
11,ACAGTATCATGGACCGGTTTTCCCGGTAATCCGTATTTGCA (site CCAGTATCTTT),0.00394
12,ACAGTATCATGGACCGGTTTTCCCGGTAATCCGTATTTGCA (site CCAGTGTCTTG),1.8
13,ACAGTATCATGGACCGGTTTTCCCGGTAATCCGTATTTGCA (site CCATTATCTTG),2.31
14,ACAGTATCATGGACCGGTTTTCCCGGTAATCCGTATTTGCA (site CCTGTATCTTG),2.37
15,ACAGTATCATGGACCGGTTTTCCCGGTAATCCGTATTTGCA (site CGAGTATCTTG),1.36
16,ACAGTATCATGGACCGGTTTTCCCGGTAATCCGTATTTGCA (site GAAGTATCTTG),2.82
17,ACAGTATCATGGACCGGTTTTCCCGGTAATCCGTATTTGCA (site GCAATATCTTG),1.63
18,ACAGTATCATGGACCGGTTTTCCCGGTAATCCGTATTTGCA (site GCAGAATCTTG),1.47
19,ACAGTATCATGGACCGGTTTTCCCGGTAATCCGTATTTGCA (site GCAGTAACTTG),0
20,ACAGTATCATGGACCGGTTTTCCCGGTAATCCGTATTTGCA (site GCAGTATCTAG),0.0509
21,ACAGTATCATGGACCGGTTTTCCCGGTAATCCGTATTTGCA (site GCAGTATCTTC),0.00944
